Measured values published in patent publication US20240182456A1, “2-((4-((S)-2-(4-CHLORO-2-FLUOROPHENYL)-2-METHYLBENZO[D][1,3]DIOXOL-4-YL)PIPERIDIN-1-YL)METHYL)-1-(((S)-OXETAN-2-YL)METHYL)-1H-IMIDAZOLE DERIVATIVES AS ACTIVATORS OF THE GLP1 RECEPTOR FOR THE TREATMENT OF OBESITY” (Novartis AG, priority 2021, published 2024).

Key:
[1] = target: T1, human GLP1R (hGLP1R) (Homo sapiens, UniProt P43220); test: Human GLP1R cAMP agonist assay (GloSensor); format: cell-based; conditions: HEK293-SNAP-hGLP1R-GloSensor cells; for Emax: cAMP, normalized to GLP1(7-36) maximum response, read-out: Emax mean; for EC50: intracellular cAMP, mean n=3 where SEM is given
How it was run: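 HEK293 cells stably expressing SNAP-tagged hGLP1R and the GloSensor-22F cAMP luciferase biosensor, pre-loaded 2 h with substrate, then exposed 12 min at rt to compound (30–0.06 μM, 0.5 mM IBMX, 0.1% BSA). Luminescence normalized to 2 nM GLP1(7-36); EC50 and Emax from 4-parameter logistic fit.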

[2] = target: T1, human GLP1R (hGLP1R); test: Human GLP1R β-arrestin recruitment assay (PathHunter); format: cell-based; parameters: insert synthesized by GeneArt 93-0164 (cells); 93-0491 (vector bundle); conditions: CHO-hGLP1R-β-arrestin cells; for EC50: mean n=2, read-out: Beta-Arrestin assay EC50 Mean; for Emax: relative to GLP1(7-36), read-out: Beta-Arrestin assay Emax
Protocol: Compounds 1 to 31 were tested in the following cellular assays that measure the intracellular cAMP concentration, beta-arrestin recruitment and receptor internalization. The cAMP is generated by the activation of GLP1R. The cAMP data obtained is shown in Table 1 (where S.E.M. is included, mean n=3 independent experiments+/−S.E.M). Beta-arrestin is recruited upon activation of GLP1R and the data obtained are shown in Table 2 (mean n=2 independent experiments, +/−S.D). The extent to which the GLP1R is internalized into the cell and away from the plasma membrane following activation is also shown in Table 2 (mean n=2 independent experiments, +/−S.D). EC50 for each assay is defined as the concentration of the compound that leads to half of the maximum response (after baseline correction). Emax is defined as the maximum response observed for the test compound, normalized to the maximum response observed for the endogenous ligand (GLP1(7-36)) to GLP1R.
The extent to which agonists recruited β-arrestin was measured using the PathHunter® β-arrestin assay (DiscoverX). This assay measures binding of β-arrestin to the receptor using an enzyme complementation approach. […] When β-arrestin is recruited to the receptor the enzyme becomes active and generates luminescence in the presence of a chemiluminescent substrate (PathHunter® Detection Kit, DiscoverX cat #93-0001). Luminescence can be measured on a relevant detector. CHO-hGLP1R-β-arrestin cells stably overexpressing hGLP1R with Prolink tag and β-arrestin with EA tag were seeded at 20 μL per well in white 384-well poly-D-Lysine coated plates (Greiner Bio One, cat #781945) in Plating Reagent 2 (DiscoverX, cat #93-0563R2A), and incubated overnight at 37° C., 5% CO2 with humidity. The following day, agonists were prepared at 5 times the final required concentration. To generate triplicate dose response curves, compounds were serially diluted 3-fold in assay buffer (HBSS, 10 mM Hepes and 0.1% BSA), then added to the cell assay plate to a final volume of 25 μL and final top concentrations starting at 30 μM. In the same plate and assay buffer as the tested compounds, were EC100 control wells containing GLP1 (7-36) peptide (Bachem, cat #H-6795) at a final concentration of 1 μM and also EC0 control wells containing no compound. The plate was incubated at 37° C., 5% CO2 with humidity for 2 h after adding the compounds to the cells. Then the detection reagent was prepared (19 parts cell assay buffer, 5 parts substrate reagent 1 and 1 part substrate reagent 2 as per manufacturers recommendations, DiscoverX cat #93-0001), and 12 μL were added per well to the cell assay plate. The plate was incubated for an additional hour in the dark at RT. Luminescence was then measured with an Envision 2104 Multilabel reader with “TRF Light Unit, 337 nm” (Perkin Elmer) using the Ultra-Sensitive protocol setting “384-well US luminescence detector” with the 384-well luminescence aperture, 0.1 sec per well. β-arrestin recruitment was calculated and expressed as percent of the GLP1 (7-36) EC100 control wells: [(sample signal−mean EC0 signal)/(mean EC100 of GLP1 (7-36) signal−mean EC0 signal)]*100 using Microsoft Excel. Curve fitting for EC50 determinations was performed using GraphPad Prism. The 4-parameter logistic model, Hill slope was used: Y=Bottom+(Top−Bottom)/(1+10^((Log EC50−X)*Hill Slope)), where Y is the functional response; X is the compound concentration; bottom is A0 or the minimum value (at 0 dose); top is Ainf or the maximum value (at infinite dose); EC50 is the point of inflection (i.e. the point on the sigmoid shaped curve halfway between A0 and Ainf). The EC50 value was calculated in μM. Emax is the maximal activity detected within the concentration range, derived from the fitted curve relative to GLP1(7-36). […]

T1 sequence (P43220 24-463): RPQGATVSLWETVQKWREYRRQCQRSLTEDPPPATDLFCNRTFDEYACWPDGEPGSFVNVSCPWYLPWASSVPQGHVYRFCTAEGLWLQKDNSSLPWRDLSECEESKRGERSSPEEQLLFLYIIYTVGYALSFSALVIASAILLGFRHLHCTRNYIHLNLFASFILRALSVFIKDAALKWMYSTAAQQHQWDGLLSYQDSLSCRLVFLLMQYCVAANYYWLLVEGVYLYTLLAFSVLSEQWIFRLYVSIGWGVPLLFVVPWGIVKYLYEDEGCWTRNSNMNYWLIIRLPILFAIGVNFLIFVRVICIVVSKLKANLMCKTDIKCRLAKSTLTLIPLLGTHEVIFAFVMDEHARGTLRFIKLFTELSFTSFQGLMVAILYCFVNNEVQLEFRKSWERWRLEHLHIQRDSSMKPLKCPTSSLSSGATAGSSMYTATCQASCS

| Compound | Emax [1] [%] | EC50 [1] [nM] | EC50 [2] [nM] | Emax [2] [%] |
| --- | --- | --- | --- | --- |
| C[C@]1(c2ccc(Cl)cc2F)Oc2cccc(C3CCN(Cc4ncc(/C=C/C(=O)O)n4C[C@@H]4CCO4)CC3)c2O1 [Compound C-1, (E)-3-(2-((4-((S)-2-(4-chloro-2-fluorophenyl)-2-methylbenzo[d][1,3]dioxol-4-yl)piperidin-1-yl)methyl)-1-(((S)-oxetan-2-yl)methyl)-1H-imidazol-5-yl)acrylic acid] | 111 | 0.0197 | 494 | 9 |
| C[C@]1(c2ccc(Cl)cc2F)Oc2cccc(C3CCN(Cc4nc(/C=C/C(=O)O)cn4C[C@@H]4CCO4)CC3)c2O1 [Compound C-2, (E)-3-(2-((4-((S)-2-(4-chloro-2-fluorophenyl)-2-methylbenzo[d][1,3]dioxol-4-yl)piperidin-1-yl)methyl)-1-(((S)-oxetan-2-yl)methyl)-1H-imidazol-4-yl)acrylic acid] | 109 | 2.23 | > 30000 | 0 |
| Cc1nc(CN2CCC(c3cccc4c3O[C@@](C)(c3ccc(Cl)cc3F)O4)CC2)n(C[C@@H]2CCO2)c1/C=C/C(=O)O [Compound C-5, (E)-3-(2-((4-((S)-2-(4-chloro-2-fluorophenyl)-2-methylbenzo[d][1,3]dioxol-4-yl)piperidin-1-yl)methyl)-4-methyl-1-(((S)-oxetan-2-yl)methyl)-1H-imidazol-5-yl)acrylic acid] | 110 | 0.0129 | 404 | 12 |
| C[C@]1(c2ccc(Cl)cc2F)Oc2cccc(C3CCN(Cc4nc(C(F)(F)F)c(C(=O)O)n4C[C@@H]4CCO4)CC3)c2O1 [Compound C-7, 2-((4-((S)-2-(4-chloro-2-fluorophenyl)-2-methylbenzo[d][1,3]dioxol-4-yl)piperidin-1-yl)methyl)-1-(((S)-oxetan-2-yl)methyl)-4-(trifluoromethyl)-1H-imidazole-5-carboxylic acid] | 109 | 0.847 | > 30000 | 2 |
